Data published in ChEMBL document CHEMBL4507291 (2021).

What was measured:
[1] = molecular target: Cyclin-dependent kinase 11A (Homo sapiens) (UniProt Q9UQ88)
[2] = molecular target: Serine/threonine-protein kinase ULK1 (Homo sapiens) (UniProt O75385)
[3] = test system: Mast/stem cell growth factor receptor Kit (Homo sapiens), P10721 [A829P]
[4] = molecular target: Serine/threonine-protein kinase WNK4 (Homo sapiens) (UniProt Q96J92)
[5] = molecular target: Serine/threonine-protein kinase 33 (Homo sapiens) (UniProt Q9BYT3)
[6] = molecular target: SRSF protein kinase 2 (Homo sapiens) (UniProt P78362)
Chain of SRSF protein kinase 2 (Homo sapiens) (P78362 whole entry, looked up): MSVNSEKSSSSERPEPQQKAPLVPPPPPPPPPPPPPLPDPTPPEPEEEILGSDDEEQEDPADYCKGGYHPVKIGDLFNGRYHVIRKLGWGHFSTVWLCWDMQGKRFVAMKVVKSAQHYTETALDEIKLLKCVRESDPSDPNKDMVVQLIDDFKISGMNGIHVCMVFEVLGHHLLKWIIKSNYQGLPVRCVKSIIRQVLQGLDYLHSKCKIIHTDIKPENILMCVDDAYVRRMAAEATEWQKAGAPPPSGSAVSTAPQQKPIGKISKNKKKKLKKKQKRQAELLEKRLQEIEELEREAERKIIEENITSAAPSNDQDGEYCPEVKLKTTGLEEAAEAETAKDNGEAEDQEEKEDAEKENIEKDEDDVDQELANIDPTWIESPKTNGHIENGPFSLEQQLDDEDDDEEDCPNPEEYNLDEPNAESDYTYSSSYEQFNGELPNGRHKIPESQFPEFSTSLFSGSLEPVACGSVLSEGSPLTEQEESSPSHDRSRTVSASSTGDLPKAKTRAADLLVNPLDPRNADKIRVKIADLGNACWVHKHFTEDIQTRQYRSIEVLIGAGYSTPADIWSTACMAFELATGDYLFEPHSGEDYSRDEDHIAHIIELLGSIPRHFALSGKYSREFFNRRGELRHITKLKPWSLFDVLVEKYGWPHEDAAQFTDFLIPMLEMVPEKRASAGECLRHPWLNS

[7] = molecular target: Hormonally up-regulated neu tumor-associated kinase (Homo sapiens) (UniProt P57058)
[8] = test system: Mast/stem cell growth factor receptor Kit (Homo sapiens), P10721 [D816V]
Chain of Mast/stem cell growth factor receptor Kit (Homo sapiens), P10721 [D816V] (P10721 whole entry D816V): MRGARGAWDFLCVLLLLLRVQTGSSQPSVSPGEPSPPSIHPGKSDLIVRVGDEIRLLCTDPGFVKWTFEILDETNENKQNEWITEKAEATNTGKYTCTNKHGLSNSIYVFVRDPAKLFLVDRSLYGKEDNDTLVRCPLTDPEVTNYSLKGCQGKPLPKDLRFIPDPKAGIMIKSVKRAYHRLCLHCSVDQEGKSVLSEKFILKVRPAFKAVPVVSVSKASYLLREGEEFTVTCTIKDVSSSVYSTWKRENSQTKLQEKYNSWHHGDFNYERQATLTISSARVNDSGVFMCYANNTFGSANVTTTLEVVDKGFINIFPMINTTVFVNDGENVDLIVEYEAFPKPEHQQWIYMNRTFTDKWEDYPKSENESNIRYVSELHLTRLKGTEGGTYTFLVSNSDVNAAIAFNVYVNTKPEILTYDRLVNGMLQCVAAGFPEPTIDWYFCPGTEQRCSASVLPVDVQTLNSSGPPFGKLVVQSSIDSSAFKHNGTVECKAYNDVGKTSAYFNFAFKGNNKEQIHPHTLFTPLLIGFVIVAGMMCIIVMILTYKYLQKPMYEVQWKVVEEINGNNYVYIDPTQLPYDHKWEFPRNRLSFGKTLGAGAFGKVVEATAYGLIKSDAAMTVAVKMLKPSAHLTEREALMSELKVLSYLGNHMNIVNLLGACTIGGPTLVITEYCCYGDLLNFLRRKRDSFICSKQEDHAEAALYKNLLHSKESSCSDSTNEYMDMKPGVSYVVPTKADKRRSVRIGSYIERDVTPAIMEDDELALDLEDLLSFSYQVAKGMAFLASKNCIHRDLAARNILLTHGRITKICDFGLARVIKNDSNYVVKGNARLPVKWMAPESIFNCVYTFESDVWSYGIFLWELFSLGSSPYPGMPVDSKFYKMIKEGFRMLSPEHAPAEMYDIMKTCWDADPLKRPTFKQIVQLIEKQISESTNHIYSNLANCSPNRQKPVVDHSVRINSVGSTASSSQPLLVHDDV

[9] = test system: Mast/stem cell growth factor receptor Kit (Homo sapiens), P10721 [V559D,V654A]
Chain of Mast/stem cell growth factor receptor Kit (Homo sapiens), P10721 [V559D,V654A] (P10721 whole entry V559D/V654A): as the sequence (P10721 whole entry D816V) above, with V559D, V654A, V816D counted along it

[10] = molecular target: D(4) dopamine receptor (Homo sapiens) (UniProt P21917); details: Compound concentration 10.0 uM
[11] = molecular target: Histamine H2 receptor (Homo sapiens) (UniProt P25021); details: Compound concentration 10.0 uM
[12] = molecular target: Aurora kinase B (Homo sapiens) (UniProt Q96GD4)
[13] = molecular target: Tyrosine-protein kinase FRK (Homo sapiens) (UniProt P42685)
Chain of Tyrosine-protein kinase FRK (Homo sapiens) (P42685 whole entry): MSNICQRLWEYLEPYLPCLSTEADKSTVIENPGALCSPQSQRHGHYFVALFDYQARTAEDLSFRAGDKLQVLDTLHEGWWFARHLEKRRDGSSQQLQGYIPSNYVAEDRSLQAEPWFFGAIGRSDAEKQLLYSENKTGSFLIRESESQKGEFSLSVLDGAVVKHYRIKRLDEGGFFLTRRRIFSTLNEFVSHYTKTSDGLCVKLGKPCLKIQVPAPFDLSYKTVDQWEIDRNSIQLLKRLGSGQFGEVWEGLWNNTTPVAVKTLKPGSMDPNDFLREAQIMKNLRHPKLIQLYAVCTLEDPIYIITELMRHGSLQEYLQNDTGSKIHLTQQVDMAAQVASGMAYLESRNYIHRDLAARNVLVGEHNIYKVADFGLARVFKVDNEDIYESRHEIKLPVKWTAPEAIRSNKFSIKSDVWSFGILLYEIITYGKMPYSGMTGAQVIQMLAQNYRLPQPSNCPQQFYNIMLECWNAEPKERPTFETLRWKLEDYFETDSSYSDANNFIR

[14] = molecular target: Serine/threonine-protein kinase DCLK1 (Homo sapiens) (UniProt O15075)
[15] = molecular target: Serine/threonine-protein kinase/endoribonuclease IRE1 (Homo sapiens) (UniProt O75460)
[16] = test system: ALK tyrosine kinase receptor (Homo sapiens), Q9UM73 [L1196M]
[17] = molecular target: Transient receptor potential cation channel subfamily M member 6 (Homo sapiens) (UniProt Q9BX84)
[18] = test system: T1, Receptor-type tyrosine-protein kinase FLT3 (Homo sapiens), P36888 [D835Y]
T1 sequence (whole entry): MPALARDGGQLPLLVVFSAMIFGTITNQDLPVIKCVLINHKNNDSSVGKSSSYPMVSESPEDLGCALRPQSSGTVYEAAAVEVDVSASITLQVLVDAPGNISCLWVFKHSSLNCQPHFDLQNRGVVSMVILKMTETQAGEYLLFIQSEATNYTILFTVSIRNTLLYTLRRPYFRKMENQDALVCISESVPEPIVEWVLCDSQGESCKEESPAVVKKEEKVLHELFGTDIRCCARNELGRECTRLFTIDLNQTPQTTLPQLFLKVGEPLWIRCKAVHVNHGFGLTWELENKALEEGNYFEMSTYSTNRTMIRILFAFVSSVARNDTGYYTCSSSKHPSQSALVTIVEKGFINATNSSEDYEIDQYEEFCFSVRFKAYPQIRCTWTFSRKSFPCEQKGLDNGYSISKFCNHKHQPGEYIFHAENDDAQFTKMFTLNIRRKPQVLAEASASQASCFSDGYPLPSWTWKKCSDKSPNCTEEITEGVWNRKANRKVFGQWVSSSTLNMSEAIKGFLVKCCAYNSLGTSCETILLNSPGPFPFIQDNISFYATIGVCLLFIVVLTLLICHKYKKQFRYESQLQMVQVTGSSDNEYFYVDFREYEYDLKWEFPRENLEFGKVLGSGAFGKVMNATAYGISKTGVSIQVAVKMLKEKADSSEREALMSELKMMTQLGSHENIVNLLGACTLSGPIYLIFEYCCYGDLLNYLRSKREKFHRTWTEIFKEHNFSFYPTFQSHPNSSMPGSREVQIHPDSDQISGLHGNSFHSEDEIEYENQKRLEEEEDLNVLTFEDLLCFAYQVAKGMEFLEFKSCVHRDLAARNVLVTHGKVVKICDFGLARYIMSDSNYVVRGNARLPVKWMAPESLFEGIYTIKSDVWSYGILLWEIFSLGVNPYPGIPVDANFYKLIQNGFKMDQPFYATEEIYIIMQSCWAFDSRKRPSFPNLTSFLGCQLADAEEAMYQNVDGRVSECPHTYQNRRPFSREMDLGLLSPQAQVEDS

[19] = molecular target: Serine/threonine-protein kinase NIM1 (Homo sapiens) (UniProt Q8IY84)
[20] = molecular target: Macrophage colony-stimulating factor 1 receptor (Homo sapiens) (UniProt P07333)
[21] = molecular target: Casein kinase II subunit alpha (Homo sapiens) (UniProt P68400)
Chain of Casein kinase II subunit alpha (Homo sapiens) (P68400 whole entry, looked up): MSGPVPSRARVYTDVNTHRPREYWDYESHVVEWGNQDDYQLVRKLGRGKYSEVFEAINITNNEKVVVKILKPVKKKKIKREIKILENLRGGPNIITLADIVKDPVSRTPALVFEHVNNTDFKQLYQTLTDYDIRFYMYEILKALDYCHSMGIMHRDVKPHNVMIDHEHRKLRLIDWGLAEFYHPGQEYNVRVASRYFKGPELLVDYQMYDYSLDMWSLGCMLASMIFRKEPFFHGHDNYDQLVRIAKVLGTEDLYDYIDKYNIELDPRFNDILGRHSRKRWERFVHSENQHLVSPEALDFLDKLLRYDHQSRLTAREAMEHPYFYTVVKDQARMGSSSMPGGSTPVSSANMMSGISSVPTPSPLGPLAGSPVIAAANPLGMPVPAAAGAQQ

[22] = molecular target: T2, MAP kinase-activated protein kinase 5 (Homo sapiens) (UniProt Q8IW41)
T2 sequence (whole entry): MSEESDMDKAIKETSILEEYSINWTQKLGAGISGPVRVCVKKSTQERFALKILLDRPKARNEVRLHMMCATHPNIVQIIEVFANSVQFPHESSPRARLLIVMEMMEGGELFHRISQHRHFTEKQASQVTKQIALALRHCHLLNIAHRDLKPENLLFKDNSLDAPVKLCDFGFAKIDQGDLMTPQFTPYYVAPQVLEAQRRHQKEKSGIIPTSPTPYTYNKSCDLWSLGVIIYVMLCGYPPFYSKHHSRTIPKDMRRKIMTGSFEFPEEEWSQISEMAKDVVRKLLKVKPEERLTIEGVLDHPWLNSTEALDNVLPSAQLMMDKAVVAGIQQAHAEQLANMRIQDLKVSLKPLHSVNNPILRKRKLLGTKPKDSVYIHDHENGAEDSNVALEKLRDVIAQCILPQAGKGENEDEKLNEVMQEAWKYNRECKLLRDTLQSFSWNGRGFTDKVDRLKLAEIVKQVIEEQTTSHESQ

[23] = molecular target: Dual specificity mitogen-activated protein kinase kinase 4 (Homo sapiens) (UniProt P45985)
Chain of Dual specificity mitogen-activated protein kinase kinase 4 (Homo sapiens) (P45985 whole entry): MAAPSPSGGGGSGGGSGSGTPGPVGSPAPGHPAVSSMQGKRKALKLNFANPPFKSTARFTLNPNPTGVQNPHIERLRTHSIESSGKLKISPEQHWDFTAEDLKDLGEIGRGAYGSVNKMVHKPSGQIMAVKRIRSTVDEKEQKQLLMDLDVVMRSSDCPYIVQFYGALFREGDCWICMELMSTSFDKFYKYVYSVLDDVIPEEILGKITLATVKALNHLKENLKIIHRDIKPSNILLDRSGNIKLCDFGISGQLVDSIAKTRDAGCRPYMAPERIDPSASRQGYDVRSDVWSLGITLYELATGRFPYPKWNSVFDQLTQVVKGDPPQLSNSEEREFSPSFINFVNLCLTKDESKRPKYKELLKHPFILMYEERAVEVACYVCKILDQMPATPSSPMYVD

[24] = molecular target: Tyrosine-protein kinase Lyn (Homo sapiens) (UniProt P07948)
Chain of Tyrosine-protein kinase Lyn (Homo sapiens) (P07948 2-512 limits assumed): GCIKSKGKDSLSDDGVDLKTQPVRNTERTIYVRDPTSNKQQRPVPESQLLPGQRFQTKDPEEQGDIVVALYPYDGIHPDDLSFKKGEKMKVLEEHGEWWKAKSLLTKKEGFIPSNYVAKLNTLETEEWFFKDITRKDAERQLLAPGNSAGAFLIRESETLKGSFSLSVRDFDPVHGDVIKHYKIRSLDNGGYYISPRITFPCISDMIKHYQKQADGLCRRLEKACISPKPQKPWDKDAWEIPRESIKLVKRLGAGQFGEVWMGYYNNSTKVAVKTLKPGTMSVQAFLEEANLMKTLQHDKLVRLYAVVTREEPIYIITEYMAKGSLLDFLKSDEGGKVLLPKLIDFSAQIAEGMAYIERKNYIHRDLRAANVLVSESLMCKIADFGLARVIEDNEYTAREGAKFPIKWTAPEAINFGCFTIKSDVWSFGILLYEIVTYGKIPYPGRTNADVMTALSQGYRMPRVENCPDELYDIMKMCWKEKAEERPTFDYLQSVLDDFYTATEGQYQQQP

[25] = molecular target: Cyclin-dependent kinase-like 2 (Homo sapiens) (UniProt Q92772)
[26] = Compound concentration 1000.0 nM
[27] = Compound concentration 100.0 nM

Chain of Mast/stem cell growth factor receptor Kit (Homo sapiens), P10721 [A829P] (P10721 whole entry A829P): as the sequence (P10721 whole entry D816V) above, with V816D, A829P counted along it
Chain of Serine/threonine-protein kinase WNK4 (Homo sapiens) (Q96J92 whole entry): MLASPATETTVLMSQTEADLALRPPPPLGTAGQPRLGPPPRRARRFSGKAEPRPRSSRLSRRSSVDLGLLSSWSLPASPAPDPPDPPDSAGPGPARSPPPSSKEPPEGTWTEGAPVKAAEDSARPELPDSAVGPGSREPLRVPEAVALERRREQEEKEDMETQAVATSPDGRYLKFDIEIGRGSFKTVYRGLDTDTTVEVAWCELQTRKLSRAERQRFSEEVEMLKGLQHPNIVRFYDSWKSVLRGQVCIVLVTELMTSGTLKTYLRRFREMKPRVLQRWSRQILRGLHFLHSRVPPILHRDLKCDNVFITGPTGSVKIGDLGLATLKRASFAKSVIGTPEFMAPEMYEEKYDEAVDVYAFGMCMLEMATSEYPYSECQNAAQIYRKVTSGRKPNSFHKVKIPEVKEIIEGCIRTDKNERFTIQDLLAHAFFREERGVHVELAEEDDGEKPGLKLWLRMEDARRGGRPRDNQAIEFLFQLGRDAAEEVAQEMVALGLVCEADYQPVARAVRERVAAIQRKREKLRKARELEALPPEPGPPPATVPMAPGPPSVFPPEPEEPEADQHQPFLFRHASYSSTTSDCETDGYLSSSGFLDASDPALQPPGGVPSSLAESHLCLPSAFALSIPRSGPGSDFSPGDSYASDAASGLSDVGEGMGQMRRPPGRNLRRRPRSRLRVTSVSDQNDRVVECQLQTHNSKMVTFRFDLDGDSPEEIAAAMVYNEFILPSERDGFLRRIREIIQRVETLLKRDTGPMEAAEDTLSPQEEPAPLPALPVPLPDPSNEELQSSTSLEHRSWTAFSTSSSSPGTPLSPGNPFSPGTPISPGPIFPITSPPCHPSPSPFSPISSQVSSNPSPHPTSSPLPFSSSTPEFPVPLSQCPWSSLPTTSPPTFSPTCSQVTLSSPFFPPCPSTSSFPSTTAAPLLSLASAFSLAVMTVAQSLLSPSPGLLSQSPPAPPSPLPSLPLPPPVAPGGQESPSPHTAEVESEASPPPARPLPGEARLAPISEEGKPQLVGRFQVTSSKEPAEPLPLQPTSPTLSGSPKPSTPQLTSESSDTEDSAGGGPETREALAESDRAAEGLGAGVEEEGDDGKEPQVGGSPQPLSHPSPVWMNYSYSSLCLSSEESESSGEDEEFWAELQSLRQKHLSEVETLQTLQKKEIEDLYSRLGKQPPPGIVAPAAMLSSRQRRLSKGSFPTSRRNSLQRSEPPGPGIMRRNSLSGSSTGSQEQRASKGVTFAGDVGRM

C[C@@H]1CN(c2cc(-c3nn(C)c4ccc(OC5(C)CC5)cc34)ncn2)C[C@H](C)O1 [MLi-2-NC]
inactive: residual activity [1, 26] 100% | residual activity [2, 26] 76% | residual activity [3, 26] 60% | residual activity [4, 26] 60% | residual activity [5, 26] 86% | residual activity [6, 26] 88% | residual activity [7, 26] 100% | residual activity [8, 26] 94% | residual activity [9, 26] 100% | inhibition [10] -2.65% | inhibition [11] 18.4% | residual activity [12, 26] 94% | residual activity [13, 26] 100% | residual activity [14, 26] 64% | residual activity [15, 26] 69% | residual activity [16, 26] 98% | residual activity [17, 26] 85% | residual activity [18, 26] 100% | residual activity [19, 26] 74% | residual activity [20, 26] 55% | residual activity [21, 26] 76% | residual activity [22, 26] 73% | residual activity [23, 26] 82% | residual activity [24, 26] 82% | residual activity [25, 26] 100%

C[C@@H]1CN(c2cc(-c3n[nH]c4ccc(OC5(C)CC5)cc34)ncn2)C[C@H](C)O1 [MLi-2]
inactive: residual activity [1, 27] 93% | residual activity [2, 27] 80% | residual activity [3, 27] 62% | residual activity [4, 27] 94% | residual activity [5, 27] 86% | residual activity [6, 27] 79% | residual activity [7, 27] 79% | residual activity [8, 27] 79% | residual activity [9, 27] 100% | inhibition [10] -4.87% | inhibition [11] 6.26% | residual activity [12, 27] 73% | residual activity [13, 27] 100% | residual activity [14, 27] 81% | residual activity [15, 27] 79% | residual activity [16, 27] 78% | residual activity [17, 27] 64% | residual activity [18, 27] 100% | residual activity [19, 27] 72% | residual activity [20, 27] 84% | residual activity [21, 27] 66% | residual activity [22, 27] 93% | residual activity [23, 27] 73% | residual activity [24, 27] 98% | residual activity [25, 27] 100%
